Measurements: US11266717B2, “Diagnosis, prevention, and/or treatment of autoimmune diseases” (priority 2016, dated 2022)
Non-standard residues stand in square brackets, D forms with d. Residues, ends and D or L forms follow the SMILES beside them. *: point of attachment. Dolaproine = CO[C@@H]([C@@H]1CCCN1)[C@@H](C)C(=O)O; Dil = CC[C@H](C)[C@H](NC)[C@@H](CC(=O)O)OC; X1 = C[C@@H](N*)[C@@H](O)c1ccccc1; NMeV = CN[C@H](C(=O)O)C(C)C

Columns and labels:
[1] = tested on: PLA2R-epitope specific memory B cells isolated from PMN patients; experiment: Elimination of PLA2R-epitope specific memory B cells: 24 h preincubation, then PLA2R-epitope-FITC staining; format: cell-based, human; details: preincubation 24 h; then PLA2R-epitope-FITC 1 h at 4° C.; FIG. 25
Protocol: (§1) In some embodiments, the efficacy of an EDC may be tested in vitro using patient samples prior to administering the EDC to patients. For example, the efficacy of an EDC is tested on isolated B cells from patient peripheral blood mononuclear cells (PBMCs) (FIG. 25; Example 6, and FIG. 30; Example 9). An EDC comprising a fluorophore (e.g., FITC) is used detect the presence of autoantibody-producing B cells in patient samples (left panels in FIG. 25 (MN patient samples) and FIG. 30 (Pemphigus vulgaris patient samples) prior to exposing the samples to an EDC comprising a cytotoxic drug. The patient samples are then treated with an EDC comprising a cytotoxic drug (e.g., MMAE). The EDC comprising the fluorophore is then used determine the efficacy of the EDC comprising a cytotoxic drug of autoantibody-producing B cells in patient samples (middle panels in FIG. 25 (MN patient samples) and FIG. 30 (Pemphigus vulgaris patient samples)).
The efficacy of the PLA2R-epitope-MMAE on eliminating the PLA2R-epitope specific memory B cells isolated from PMN patients was assessed. MMAE is a potent cytotoxic agent that blocks tubulin polymerization causing cell death. MMAE has been used to develop an antibody-drug conjugate, Brentuximab vedotin (trade name Adcetris) for lymphoma treatment, and was approved by FDA in 2011. […]

[2] = tested on: Dsg1 and Dsg3-epitope specific memory B cells isolated from mucocutaneous PV patients; experiment: Elimination of Dsg1 and Dsg3-epitope specific memory B cells: 24 h preincubation, then Dsg1 and Dsg3-epitope-FITC staining; format: cell-based, human; details: preincubation 24 h; then Dsg1 and Dsg3-epitope-FITC 1 h at 4° C.; FIG. 30
Protocol: as §1
The efficacy of the Dsg1 and Dsg3 epitope conjugated to MMAE to eliminate Dsg1 and Dsg3-epitope specific memory B cells, respectively, isolated from the mucocutaneous PV patients was assessed. Total B cells isolated from patient peripheral blood were cultured overnight in RPMI medium and then split equally into two wells on a 12 well cell culture plate (2 ml/per well). […]

[3] = tested on: anti-PLA2R autoantibodies; experiment: Western blot of PLA2R-epitope proteins probed with patient serum containing anti-PLA2R autoantibodies; format: binding, human; details: SDS-PAGE under non-reducing condition
Source text: (§2) The construct was then expressed in the HEK293 cells and the epitope protein was purified using nickel and gel filtration columns followed with TEV cleavage to remove the His-tag. The protein was then coupled with a fluorescent agent (eg. FITC) or a cytotoxic reagent (eg. Monomethyl auristatin E (MMAE)).
In a separate experiment (FIG. 23; bottom right), equal amount of epitope, FITC conjugated epitope and MMAE conjugated epitope proteins were resolved on a SDS-PAGE under the non-reducing condition, transferred to a membrane, and probed by a patient serum containing anti-PLA2R autoantibodies. The unconjugated and the conjugated PLA2R-epitope proteins were resolved on a 4-20% SDS-PAGE under the non-reducing condition and probed with a patient serum containing anti-PLA2R autoantibodies (FIG. 23, bottom right).
as §2, with “(MMAE)) (FIG. 23).” for “(MMAE)).”

| Compound | staining of B cells with PLA2R-epitope-FITC after preincubation (elimination of PLA2R-epitope specific memory B cells) [1] | staining of B cells with Dsg1 and Dsg3-epitope-FITC after preincubation (elimination of Dsg1 and Dsg3-epitope specific memory B cells) [2] | reaction/binding with anti-PLA2R autoantibodies (Western blot) [3] | reaction/binding with anti-PLA2R autoantibodies (Western blot) ([3]; listed as modified PLA2R-epitope) | reaction/binding with anti-PLA2R autoantibodies (Western blot) ([3]; listed as unconjugated PLA2R-epitope) |
| --- | --- | --- | --- | --- | --- |
| CC[C@H](C)[C@@H]([C@@H](CC(=O)N1CCC[C@H]1[C@H](OC)[C@@H](C)C(=O)N[C@H](C)[C@@H](O)c1ccccc1)OC)N(C)C(=O)[C@@H](NC(=O)[C@@H](NC)C(C)C)C(C)C [MMAE, Monomethyl auristatin E, reference compound] (H-[NMeV]V[Dil][Dolaproine]-X1) | a number of B cells being stained | a number of B cells being stained |  |  |  |
| PLA2R-epitope: PLA2R CysR, FnII and CTLD1 domains with free cysteine engineered into the C-terminal tail, expressed in HEK293 cells, about 37 kDa |  |  | strongly reacted | strongly reacted | strongly |
